Earlier results in patent publication US12661367B2, “Streptomyces spororaveus strain and a new antibiotics against bacteria and fungi” (National Taipei University of Technology, priority 2022, dated 2026).

Assays:
[1] = orally used

bioavailability [1]: low bioavailability
solubility in water: nearly insoluble in water
SMILES: C[C@@H]1C/C=C/C=C/C=C/C=C/[C@H](O[C@@H]2O[C@H](C)[C@@H](O)[C@H](N)[C@@H]2O)C[C@@H]2O[C@](O)(C[C@@H](O)C[C@H]3O[C@@H]3/C=C/C(=O)O1)C[C@H](O)[C@H]2C(=O)O [natamycin]
